The values that follow are results of earlier work, collected in patent US6524619B2, “Dosage forms useful for modifying conditions and functions associated with hearing loss and/or tinnitus” (Chronorx, Inc., priority 2000, dated 2003).

One series concerns senile deafness. The note with it: 1 microgram/day for 6 to 10 months, 12 patients suspected of abnormal bone metabolism.
The subject of series [1] is blood viscosity and red cell membrane lipid peroxidation. The note with it: 300 mg tid 3 months, Type 2 diabetes mellitus.
In series [2] the test system is hydrogen peroxide-induced platelet aggregation.
Experiment in series [3]: not given
This is another data set of the same source.

For series [4] the following is noted: one small study.
The conditions of series [5]: levels up to 1 mg per day.
The conditions of series [6]: humans, 200 mg oral dose.
The conditions of series [7]: rats, oral (C14) LA.
Series [8] deals with bovine aortic endothelial cells (BAECs). Particulars: LA added before AGE exposure.
Series [9] relates to outer cochlear hair cells. The note with it: rat, postmortem.
The test system of series [10] is GSHPx. The note with it: within 30 minutes, exogenously administered.
The conditions of series [11]: 3 mg ingested, within 20 min.
The conditions of series [12]: 80 mg orally.
For a further series, the system named is NMDA receptor. Particulars: rat, iontophoresis.
Series [13] relates to noise-induced permanent hearing threshold shifts (NIPTS). Particulars: 167 mg elemental Mg^2+ daily, 2 months, 300 recruits.
The conditions of series [14]: in vivo.
The next series deals with RBC GSH system. Particulars: selenium treatment.
The test system of a further series is peritoneal macrophages. Particulars: mice.
The next series has as its system tinnitus and SNHL. The note with it: marginally Zn^2+ deficient elderly adults.
Experiment in series [15]: not given
This is another data set of the same source.

A further series concerns red cell membrane. The note with it: 300 mg tid after meals for 3 months.
In series [16] the test system is GSHPx. Particulars: following supplementation.
Experiment in series [17]: not given
This is another data set of the same source.

For series [18] the following is noted: 100 mg oral.

Read-outs that look alike come from different tables or passages of the source.

On to `C=C1/C(=C\C=C2/CCC[C@]3(C)[C@@H]([C@H](C)CCCC(C)C)CC[C@@H]23)C[C@@H](O)C[C@@H]1O` [1 alpha-(OH)D3], for which the hearing improvement result in the series on senile deafness is “hearing improvement in six ears (four patients)”.

On to `Cc1c(C)c2c(c(C)c1OC(=O)c1cccnc1)CC[C@@](C)(CCC[C@H](C)CCC[C@H](C)CCCC(C)C)O2` [Alpha-tocopherol nicotinate, alpha tocopherol nicotinate], for which the “reduction of malondialdehyde (MDA) in red cell membrane” value in series [1] is 0.17 ± 0.13 nmol/L. In series [1] (gamma=1.5 s(−1)), the “reduction of blood viscosity” value is −2.23 +/−2.82. In addition, in series [2], the “inhibitory effect upon hydrogen peroxide-induced platelet aggregation” value was “greater than that of either vitamin E alone or the simultaneous use of vitamin E and nicotinic acid”.

For `CC(C)(C)[C@]1(O)CC2OC(=O)CC23C(=O)OC2OC(=O)[C@H](O)C231` (some centres unmarked) [Bilobalide], the “bioavailability coefficient (FAUC), mean” value (given orally during fasting) is on record as 0.79(+/−0.3).

For `COC1=C(OC)C(=O)C(C/C=C(\C)CC/C=C(\C)CC/C=C(\C)CC/C=C(\C)CC/C=C(\C)CC/C=C(\C)CC/C=C(\C)CC/C=C(\C)CC/C=C(\C)CCC=C(C)C)=C(C)C1=O` [CoQ10, Coenzyme Q10], in series [3] (granular preparations), the “increase of CoQ10 in plasma” value is given as 168%. Further, the “elevation of CoQ10 in plasma” value in series [3] (supplemental oil-based capsules) is on record as 178%.

Consider `[Cr]` [Cr, Chromium], for which, in [4], the “average apparent net absorption of Cr” value is 1.8%. For the same compound, in [5], the signs of toxicity result is given as “no documented signs of toxicity”.

In the case of `C[C@@H]1C(=O)O[C@H]2C[C@@]34[C@H]5C[C@@H](C(C)(C)C)[C@]36[C@@H](OC(=O)[C@@H]6O)O[C@@]4(C(=O)O5)[C@]21O` [Ginkgolide A], the “bioavailability coefficient (FAUC), mean” value (given orally during fasting) was 0.80 (+/−0.09).

As to `CC1C(=O)OC2C(O)C34C5CC(C(C)(C)C)C36C(OC(=O)C6O)OC4(C(=O)O5)C12O` (centres unmarked) [Ginkgolide B], the “bioavailability coefficient (FAUC), mean” value (in vivo, po) was 0.88(+/−0.21).

As to `O=C(O)CCCCC1CCSS1` (centres unmarked) [LA, 1,2-dithiolane-3-pentanoic acid], in series [6], the absolute bioavailability is listed as 29.1+/−10.3%. In addition, the “plasma concentration-time curve area (FAUC) relative to intravenous administration” value in series [7] was 66%. The “depletion of GSH and ascorbic acid” value in series [8] was “completely prevents depletion of GSH and ascorbic acid”.

Consider `COc1ccc2[nH]cc(CCNC(C)=O)c2c1` [Melatonin, N-acetyl-5-methoxytryptamine], for which the “prolongation of hair cell activity after death compared to untreated animals” value in series [9] is “up to 7 times”. Moreover, the “rise in GSHPx activity in the brain” value with GSHPx [10] is 2 fold. The serum melatonin in series [11] was 3561 ± 1201 pg/mL. For the same compound, in series [12], the “absorption constant (ka)” value was 1.72 h⁻¹, the “elimination constant (kel)” value is 0.87 h⁻¹, the “time of peak serum melatonin after administration” value is 60 to 150 min and the “time peak serum melatonin remains stable” value was “approximately 1.5 hours”. Also, the “excitatory response of the cortical striatum” value (“excitatory response” for short) in the series with NMDA receptor is “potent attenuation”.

As to `[Mg+2]` [Mg^2+, Magnesium], the “NIPTS frequency and severity” value in [13] was “significantly more frequent and more severe in the placebo group”. In the series with NMDA receptor, the “excitatory response” value was “potent attenuation”. The “maximum intestinal bulk absorption” value in [14] is recorded as 8 mEq per meal.

For `O=C(O)c1cccnc1` [Nicotinic acid, reference compound], the “inhibitory effect upon hydrogen peroxide-induced platelet aggregation” value in [2] is “no inhibitory effect”.

With `[Se]` [Selenium], in the series with RBC GSH system, the “elevation of RBC GSHPx” value is reported as 64% and the “reduction in the RBC oxidized GSH content” value was 39%. In the series on RBC GSH system (RBC), the “increase in GSH content” value is given as 11% and the “increase in glutathione reductase activities” value is 57%. In the series with peritoneal macrophages, the “increase in GSH content in peritoneal macrophages” value is 36%; the “increase in GSHPx activity in peritoneal macrophages” value was 30%; the “reduction in cell-mediated oxidation of LDL and aortic atherosclerotic lesions” value is on record as 46%.

`[Zn+2]` [Zn^2+, Zinc]: the “reduction of tinnitus and SNHL” value in the series with tinnitus and SNHL is recorded as “about one-third”. Besides, the “increase of mean plasma Zn^+2 above pre-load levels” value in [15] (11-fold increase in intake) is listed as 37%. In series [15] (in vivo), the “ingested Zn^+2 entering the plasma” value is “About 37%” and the “time by which gastrointestinal absorption is essentially completed” value is at most 4 h. Moreover, the “excitatory response” value in the series on NMDA receptor was “potent attenuation”.

As for `Cc1c(C)c2c(c(C)c1O)CC[C@@](C)(CCC[C@H](C)CCC[C@H](C)CCCC(C)C)O2` [alpha-tocopherol, D, alpha-tocopherol], the “reduction of lipid peroxidation stress in red cell membrane (MDA)” value in the series with red cell membrane was 0.17 ± 0.13 nmol. In addition, the GSHPx activities result with GSHPx [16] was “increase as much as twofold”.

With `NC(=O)c1cccnc1` [standard nicotinamide, nicotinamide], the “increase in the AUC” value in series [17] (10-fold increase in the dose) is on record as 62 fold. Also, the “AUC relative to Enduramide” value in series [17] (higher doses) is listed as 1.7 times.

Take d5-CoQ10: the “time of second plasma peak after dosing” value in [18] (most of the subjects) is listed as 24 h. In series [18] (sixteen healthy male subjects), the “mean plasma CoQ10 level peak” value was 1.004+/−0.37 micrograms/ml.
